# Experimental data taken from patent publication US9193714B2, “Fluorinated estrogen receptor modulators and uses thereof” (priority 2011, dated 2015).
# Where two headings read alike, the source gives them in different places.
# What was measured:
# ER-α = molecular target: T1, ER-α (Homo sapiens, UniProt P03372); test: Breast Cancer Cell ER-α in Cell Western Assay (SP1); type: cell-based; conditions: MCF7, read-out: ER In-Cell Western Assay (SP1); Max Response
# T1 construct: endogenous in cells; host or cells: MCF-7
# T1 sequence (P03372 whole entry): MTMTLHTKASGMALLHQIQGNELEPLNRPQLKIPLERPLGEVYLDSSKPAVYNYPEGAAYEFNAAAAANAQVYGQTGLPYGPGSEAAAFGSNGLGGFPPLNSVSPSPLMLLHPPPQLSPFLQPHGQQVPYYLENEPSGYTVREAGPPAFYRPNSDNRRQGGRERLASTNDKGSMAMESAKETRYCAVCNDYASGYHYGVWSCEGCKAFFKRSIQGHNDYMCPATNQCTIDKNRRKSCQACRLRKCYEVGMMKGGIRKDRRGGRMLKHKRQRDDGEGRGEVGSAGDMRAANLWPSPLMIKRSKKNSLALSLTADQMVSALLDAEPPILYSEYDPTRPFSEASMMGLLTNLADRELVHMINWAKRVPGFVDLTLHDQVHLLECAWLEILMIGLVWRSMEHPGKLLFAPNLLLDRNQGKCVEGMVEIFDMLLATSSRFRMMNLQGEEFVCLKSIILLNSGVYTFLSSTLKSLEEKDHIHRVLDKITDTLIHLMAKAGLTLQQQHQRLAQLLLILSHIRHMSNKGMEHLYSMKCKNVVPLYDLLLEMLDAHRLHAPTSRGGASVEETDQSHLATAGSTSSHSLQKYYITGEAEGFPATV
# Procedure: MCF-7 cells were adjusted to a concentration of 200,000 cells per mL in RPMI containing 10% charcoal-stripped FBS and 20 mM HEPES. 16 microliters of the cell suspension (3200 cells) was added to each well of a poly-D-lysine 384 well plate, and the cells were incubated overnight to allow the cells to adhere. The following day an eleven point, serial semilog dilution of each compound was added to the cells in 16 μL at a final concentration ranging from 0.3-0.000003 μM. At 4 or 24 hr post compound addition, the cells were fixed (10% formalin in PBS) for 20 minutes. Cells were permeablized in PBS 0.1% Triton and blocked with LICOR blocking buffer (50 μl/well, 90′). The wells were then incubated overnight at 4° C. with SP1 rabbit monoclonal Ab (Thermo Scientific) diluted 1:1000 in LICOR blocking buffer/0.1% Tween-20. Wells which were treated with blocking buffer with Tween but no antibody were used as a background control. Wells were washed with 0.1% Tween-20/PBS and then incubated in goat anti-rabbit IRDye™ 800 CW (LICOR Inc.; 1:1000) and DRAQ5 DNA dye (1:2000 for 2 mM stock) diluted in LICOR blocking buffer containing 0.1% Tween-20 and 0.01% SDS for 60 minutes. Cells were washed (50 μl/well, 5′ each) in 0.1% Tween-20/PBS. Plates were scanned on a LICOR Odyssey infrared imaging system. Integrated intensities in the 800 nm channel and 700 nm channel were measured to determine levels of ER and DNA respectively. Percent ER levels were determined as follows: (Integrated intensity 800 nm sample/integrated intensity 700 nm sample)/(Integrated intensity 800 nm untreated cells/integrated intensity 700 nm untreated cells)×100=% ER levels.
# MCF-7 cells = test: Breast Cancer Cell Viability Assay (MCF7 Viability Assay); type: cell-based; conditions: for IC50: Homo sapiens, MCF7, 120 h, read-out: MCF7 Viability Assay IC50
# Procedure: MCF-7 cells were adjusted to a concentration of 20,000 cells per mL in RPMI containing 10% FBS and 20 mM HEPES. 16 microliters of the cell suspension (320 cells) was added to each well of a 384 well plate, and the cells were incubated overnight to allow the cells to adhere. The following day an eleven point, serial semilog dilution of each compound was added to the cells in 16 μL at a final concentration ranging from 0.3-0.000003 μM. After 5 days' compound exposure, 16 μL of CellTiter-GLo (Promega, Madison Wis.) was added to the cells the relative luminescence units (RLUs) of each well was determined. CellTiter-Glo added to 32 μL of medium without cells was used to obtain a background value. The Percent viability of each sample was determined as follows: (RLU sample-RLU background/RLU untreated cells-RLU background)×100=% viability.
# [1] = MCF-7 cells, 5 days' compound exposure, CellTiter-Glo
IC50 (MCF-7 cells) [nM],Structure (SMILES),Emax (ER-α) [%],IC50 (MCF-7 cells; [1]) [nM],MCF7 Viability Assay Max Response (MCF-7 cells; [1])
–,"CC1=C(c2ccc(Cl)cc2)C(c2ccc(OC[C@H](C)N3CC[C@@H](CF)C3)cc2)Oc2ccc(O)cc21 (stereo partly drawn) [Example 15, 3-(4-Chlorophenyl)-2-(4-((S)-2-((R)-3-(fluoromethyl)pyrrolidin-1-yl)propoxy)phenyl)-4-methyl-2H-chromen-6-ol]",> 85,> 1,++ (a single % value ≧ 50%)
–,"CC1=C(c2cc(O)c(F)c(F)c2)C(c2ccc(OCCN3CC[C@@H](CF)C3)cc2)Oc2ccc(O)cc21 (stereo partly drawn) [Example 6, 3-(3,4-Difluoro-5-hydroxyphenyl)-2-(4-(2-((R)-3-(fluoromethyl)pyrrolidin-1-yl)ethoxy)phenyl)-4-methyl-2H-chromen-6-ol]",> 85,< 1,++ (a single % value ≧ 50%)
< 1,"CC1=C(c2cccc(O)c2)C(c2ccc(OCCN3CC[C@@H](CF)C3)cc2)Oc2ccc(O)cc21 (stereo partly drawn) [Example 2, 2-(4-(2-((R)-3-(Fluoromethyl)pyrrolidin-1-yl)ethoxy)phenyl)-3-(3-hydroxyphenyl)-4-methyl-2H-chromen-6-ol]",> 85,–,++ (a single % value ≧ 50%)
–,"CC1=C(c2ccc(O)c(F)c2)C(c2ccc(OC[C@H](C)N3CC[C@@H](CF)C3)cc2)Oc2ccc(O)cc21 (stereo partly drawn) [Example 13, 3-(3-Fluoro-4-hydroxyphenyl)-2-(4-((S)-2-((R)-3-(fluoromethyl)pyrrolidin-1-yl)propoxy)phenyl)-4-methyl-2H-chromen-6-ol]",> 85,< 1,++ (a single % value ≧ 50%)
> 1,"CC1=C(c2cccc(O)c2)C(c2ccc(OCCN3CCC[C@H]3CF)cc2)Oc2ccc(O)cc21 (stereo partly drawn) [Example 18, 2-(4-(2-((S)-2-(Fluoromethyl)pyrrolidin-1-yl)ethoxy)phenyl)-3-(3-hydroxyphenyl)-4-methyl-2H-chromen-6-ol]",60 to 85,–,++ (a single % value ≧ 50%)
–,"CC1=C(c2cc(O)c(F)c(F)c2)C(c2ccc(OC[C@H](C)N3CC[C@@H](CF)C3)cc2)Oc2ccc(O)cc21 (stereo partly drawn) [Example 9, 3-(3,4-Difluoro-5-hydroxyphenyl)-2-(4-((S)-2-((R)-3-(fluoromethyl)pyrrolidin-1-yl)propoxy)phenyl)-4-methyl-2H-chromen-6-ol]",> 85,< 1,++ (a single % value ≧ 50%)
–,CC1=C(c2ccc(F)cc2)C(c2ccc(OC[C@H](C)N3CC[C@@H](CF)C3)cc2)Oc2ccc(O)cc21 (stereo partly drawn) [Example 27],> 85,> 1,++ (a single % value ≧ 50%)
–,"CC1=C(c2cc(O)ccc2F)C(c2ccc(OC[C@H](C)N3CC[C@@H](CF)C3)cc2)Oc2ccc(O)cc21 (stereo partly drawn) [Example 14, 3-(2-Fluoro-5-hydroxyphenyl)-2-(4-((S)-2-((R)-3-(fluoromethyl)pyrrolidin-1-yl)propoxy)phenyl)-4-methyl-2H-chromen-6-ol]",> 85,< 1,++ (a single % value ≧ 50%)
–,CC1=C(c2ccc(C#N)cc2)C(c2ccc(OC[C@H](C)N3CC[C@@H](CF)C3)cc2)Oc2ccc(O)cc21 (stereo partly drawn) [Example 16],> 85,> 1,++ (a single % value ≧ 50%)
> 1,"CC1=C(c2cccc(O)c2)[C@@H](c2ccc(OCCN3CC[C@@H](CF)C3)cc2)Oc2ccc(O)cc21 (single isomer, unassigned) [Example 2a]",> 85,–,++ (a single % value ≧ 50%)
